Measurements published in BigSolDB 2.1.

CC(=O)N[C@@H](C)C(=O)O
solubility (mole fraction)
Conditions	283.15 K	288.15 K	293.15 K	298.15 K	303.15 K	308.15 K	313.15 K	318.15 K	323.15 K
in 2-butanone	0.0111	0.0132	0.0161	0.0186	0.0215	0.026	0.03	0.0358	0.0437
in acetone	0.0224	0.028	0.0329	0.0372	0.0446	0.0524	0.0638	0.0819	0.103
in acetonitrile	0.00594	0.00727	0.00871	0.0114	0.0136	0.0177	0.0226	0.0312	0.0385
in dimethyl carbonate	0.00223	0.00261	0.00319	0.00376	0.00449	0.00543	0.00668	0.00841	0.0103
in ethanol	0.111	0.127	0.138	0.156	0.174	0.198	0.217	0.235	0.267
in ethyl acetate	0.00433	0.00521	0.0062	0.00718	0.00806	0.00947	0.0112	0.0131	0.0156
in isobutanol	0.0571	0.063	0.0718	0.0798	0.0916	0.107	0.12	0.132	0.145
in isopentanol	0.0527	0.0563	0.0636	0.0713	0.0823	0.0949	0.108	0.125	0.139
in isopropanol	0.0781	0.0901	0.1	0.113	0.13	0.148	0.162	0.175	0.195
in methyl acetate	0.00578	0.00705	0.00861	0.00997	0.0114	0.0135	0.0162	0.0196	0.0242
in n-butanol	0.0633	0.0707	0.0784	0.0869	0.0982	0.114	0.127	0.143	0.157
in n-butyl acetate	0.00354	0.00382	0.00417	0.00455	0.00504	0.00573	0.00654	0.00771	0.00892
in n-pentanol	0.0516	0.0546	0.0621	0.0695	0.0805	0.0915	0.106	0.12	0.137
in n-propanol	0.0858	0.0937	0.104	0.118	0.133	0.153	0.168	0.186	0.213
in n-propyl acetate	0.003	0.00352	0.00421	0.00495	0.00558	0.00642	0.00755	0.00913	0.0109
in sec-butanol	0.068	0.0759	0.0892	0.101	0.113	0.129	0.144	0.161	0.175
